Experimental findings from US7199121B2, “Protein tyrosine phosphatase inhibitor” (Institute of Molecular and Cell Biology, priority 2000, dated 2007) are described below.

This experiment deals with Yop. Conditions: for percentage activity of Yop relative to control: 1 μM compound, phosphatase 0.1 nM, pNPP, average of three enzyme preparations ± S.D.

Consider `Cn1nc2c(nc1=O)c(=O)n(C)c(=O)n2C` [Compound 3, 2,8-dihydro-2,6,8-trimethyl-pyrimido[5,4-e]-1,2,4-triazine-3,5,7(6H)-trione], for which the “percentage activity of Yop relative to control” value is recorded as 10 ± 1.0%. For the same compound, the “inhibition of Yop” value (1 μM) is roughly 90%. Under “neutral pH, results not shown”, the “PTP inhibition of Yop at neutral pH” value was “continues to behave as a PTP inhibitor”.

In the case of `Cn1nc2c(nc1=O)n(C)c(=O)n2C` [Compound 4, 2,5,7-trimethyl-2,7-dihydro-5H-imidazo[4,5-e]-1,2,4-triazine-3,6-dione], the “percentage activity of Yop relative to control” value is listed as 95 ± 4.0%.

As to `[Na+].[Na+].[Na+].[O]=[V]([O-])([O-])[O-]` [Na3VO4, sodium orthovanadate, reference compound], the “percentage activity of Yop relative to control” value is recorded as 14 ± 1.0%.
